Test results: ChEMBL document CHEMBL4346705, “(±)-trans-Dihydronarciclasine and (±)-trans-dihydrolycoricidine analogues modified in their ring A: Evaluation of their anticancer activity and a SAR study” (2019)

Columns and labels:
Assay type in all cases: functional
[1] = test system: MOLT-4; assay: Antiproliferative activity against human MOLT4 cells assessed as cell viability at 10^-5 M incubated for 48 hrs by sulforhodamine B assay relative to control; details: MOLT-4, 48 h, read-out: Activity
[2] = test system: EKVX; assay: Antiproliferative activity against human EKVX cells assessed as cell viability at 10^-5 M incubated for 48 hrs by sulforhodamine B assay relative to control; details: read-out: Activity
[3] = test system: HOP-62; assay: Antiproliferative activity against human HOP62 cells assessed as cell viability at 10^-5 M incubated for 48 hrs by sulforhodamine B assay relative to control; details: HOP-62, 48 h, read-out: Activity
[4] = test system: NCI-H226; assay: Antiproliferative activity against human NCI-H226 cells assessed as cell viability at 10^-5 M incubated for 48 hrs by sulforhodamine B assay relative to control; details: NCI-H226, 48 h, read-out: Activity
[5] = test system: NCI-H23; assay: Antiproliferative activity against human NCI-H23 cells assessed as cell viability at 10^-5 M incubated for 48 hrs by sulforhodamine B assay relative to control; details: NCI-H23, 48 h, read-out: Activity
[6] = test system: NCI-H322M; assay: Antiproliferative activity against human NCI-H322M cells assessed as cell viability at 10^-5 M incubated for 48 hrs by sulforhodamine B assay relative to control; details: read-out: Activity
[7] = test system: NCI-H522; assay: Antiproliferative activity against human NCI-H522 cells assessed as cell viability at 10^-5 M incubated for 48 hrs by sulforhodamine B assay relative to control; details: NCI-H522, 48 h, read-out: Activity
[8] = test system: HT-29; assay: Antiproliferative activity against human HT-29 cells assessed as cell viability at 10^-5 M incubated for 48 hrs by sulforhodamine B assay relative to control; details: HT-29, 48 h, read-out: Activity
[9] = test system: KM12; assay: Antiproliferative activity against human KM12 cells assessed as cell viability at 10^-5 M incubated for 48 hrs by sulforhodamine B assay relative to control; details: KM12, 48 h, read-out: Activity
[10] = test system: SF-295; assay: Antiproliferative activity against human SF295 cells assessed as cell viability at 10^-5 M incubated for 48 hrs by sulforhodamine B assay relative to control; details: SF-295, 48 h, read-out: Activity
[11] = test system: SF-539; assay: Antiproliferative activity against human SF539 cells assessed as cell viability at 10^-5 M incubated for 48 hrs by sulforhodamine B assay relative to control; details: SF-539, 48 h, read-out: Activity
[12] = test system: SNB-75; assay: Antiproliferative activity against human SNB75 cells assessed as cell viability at 10^-5 M incubated for 48 hrs by sulforhodamine B assay relative to control; details: SNB-75, 48 h, read-out: Activity
[13] = test system: LOX IMVI; assay: Antiproliferative activity against human LOXIMVI cells assessed as cell viability at 10^-5 M incubated for 48 hrs by sulforhodamine B assay relative to control; details: read-out: Activity
[14] = test system: SK-MEL-2; assay: Antiproliferative activity against human SK-MEL-2 cells assessed as cell viability at 10^-5 M incubated for 48 hrs by sulforhodamine B assay relative to control; details: SK-MEL-2, 48 h, read-out: Activity
[15] = test system: SK-MEL-28; assay: Antiproliferative activity against human SK-MEL-28 cells assessed as cell viability at 10^-5 M incubated for 48 hrs by sulforhodamine B assay relative to control; details: SK-MEL-28, 48 h, read-out: Activity
[16] = test system: SK-MEL-5; assay: Antiproliferative activity against human SK-MEL-5 cells assessed as cell viability at 10^-5 M incubated for 48 hrs by sulforhodamine B assay relative to control; details: SK-MEL-5, 48 h, read-out: Activity
[17] = test system: UACC-62; assay: Antiproliferative activity against human UACC62 cells assessed as cell viability at 10^-5 M incubated for 48 hrs by sulforhodamine B assay relative to control; details: UACC-62, 48 h, read-out: Activity
[18] = test system: OVCAR-4; assay: Antiproliferative activity against human OVCAR4 cells assessed as cell viability at 10^-5 M incubated for 48 hrs by sulforhodamine B assay relative to control; details: OVCAR-4, 48 h, read-out: Activity
[19] = test system: OVCAR-8; assay: Antiproliferative activity against human OVCAR8 cells assessed as cell viability at 10^-5 M incubated for 48 hrs by sulforhodamine B assay relative to control; details: OVCAR-8, 48 h, read-out: Activity
[20] = test system: NCI/ADR-RES; assay: Antiproliferative activity against human NCI-ADR-RES cells assessed as cell viability at 10^-5 M incubated for 48 hrs by sulforhodamine B assay relative to control; details: read-out: Activity
[21] = test system: A498; assay: Antiproliferative activity against human A498 cells assessed as cell viability at 10^-5 M incubated for 48 hrs by sulforhodamine B assay relative to control; details: A498, 48 h, read-out: Activity
[22] = test system: CAKI-1; assay: Antiproliferative activity against human Caki1 cells assessed as cell viability at 10^-5 M incubated for 48 hrs by sulforhodamine B assay relative to control; details: CAKI-1, 48 h, read-out: Activity
[23] = test system: RXF 393; assay: Antiproliferative activity against human RXF393 cells assessed as cell viability at 10^-5 M incubated for 48 hrs by sulforhodamine B assay relative to control; details: RXF 393, 48 h, read-out: Activity
[24] = test system: SN12C; assay: Antiproliferative activity against human SN12C cells assessed as cell viability at 10^-5 M incubated for 48 hrs by sulforhodamine B assay relative to control; details: read-out: Activity
[25] = test system: MCF7; assay: Antiproliferative activity against human MCF7 cells assessed as cell viability at 10^-5 M incubated for 48 hrs by sulforhodamine B assay relative to control; details: MCF7, 48 h, read-out: Activity
[26] = test system: MDA-MB-231; assay: Antiproliferative activity against human MDA-MB-231 cells assessed as cell viability at 10^-5 M incubated for 48 hrs by sulforhodamine B assay relative to control; details: MDA-MB-231, 48 h, read-out: Activity
[27] = test system: Hs-578T; assay: Antiproliferative activity against human Hs 578T cells assessed as cell viability at 10^-5 M incubated for 48 hrs by sulforhodamine B assay relative to control; details: read-out: Activity
[28] = test system: MDA-MB-468; assay: Antiproliferative activity against human MDA-MB-468 cells assessed as cell viability at 10^-5 M incubated for 48 hrs by sulforhodamine B assay relative to control; details: MDA-MB-468, 48 h, read-out: Activity
[29] = test system: M14; assay: Cytotoxicity against human M14 cells assessed as growth inhibition after 48 hrs by sulforhodamine B assay; details: M14, 48 h; for CC50: read-out: LC50 (the source's name)
[30] = test system: SK-OV-3; assay: Cytotoxicity against human SKOV3 cells assessed as growth inhibition after 48 hrs by sulforhodamine B assay; details: SK-OV-3, 48 h; for CC50: read-out: LC50 (the source's name)
[31] = test system: A498; assay: Cytotoxicity against human A498 cells assessed as growth inhibition after 48 hrs by sulforhodamine B assay; details: A498, 48 h
[32] = test system: Hs-578T; assay: Cytotoxicity against human Hs 578T cells assessed as growth inhibition after 48 hrs by sulforhodamine B assay

Compound | viability at 10 µM [1] [%] | viability at 10 µM [2] [%] | viability at 10 µM [3] [%] | viability at 10 µM [4] [%] | viability at 10 µM [5] [%] | viability at 10 µM [6] [%] | viability at 10 µM [7] [%] | viability at 10 µM [8] [%] | viability at 10 µM [9] [%] | viability at 10 µM [10] [%] | viability at 10 µM [11] [%] | viability at 10 µM [12] [%] | viability at 10 µM [13] [%] | viability at 10 µM [14] [%] | viability at 10 µM [16] [%] | viability at 10 µM [17] [%] | viability at 10 µM [18] [%] | viability at 10 µM [19] [%] | viability at 10 µM [20] [%] | viability at 10 µM [21] [%] | also measured
O=C1NC2C(CC(O)C(O)C2O)c2cc3c(c(O)c21)OCCO3 (racemic) | -0.8 | -14.3 | -26.5 | -11.3 | -40.9 | -24.3 | -36.1 | -14.5 | -2.6 | -14.9 | -24.1 | -4.29 | -41.1 | -48.7 | -52.1 | -13.3 | -8.78 | -13.8 | -0.44 | -29.7 | viability at 10 µM [15]: -16.4%; viability at 10 µM [22]: 4.9%; viability at 10 µM [23]: -24.2%; viability at 10 µM [24]: -9.95%; viability at 10 µM [25]: -13.3%; viability at 10 µM [26]: -24.1%; viability at 10 µM [27]: -9.44%; viability at 10 µM [28]: -27.2%; GI50 [29]: 230 nM; TGI [29]: 1190 nM; CC50 [29]: 5530 nM; GI50 [30]: 496 nM; TGI [30]: 4030 nM; CC50 [30]: > 100000 nM; GI50 [31]: 300 nM; LC50 (concentration killing 50% of cells) [31]: 6860 nM; TGI [31]: 1170 nM; GI50 [32]: 256 nM; LC50 (concentration killing 50% of cells) [32]: > 100000 nM; TGI [32]: 940 nM
O=C1NC2C(CC(O)C(O)C2O)c2cc3c(c(O)c21)OCO3 (racemic) | -6.14 | -26.3 | -18.9 | -38.3 | -14.9 | -14.7 | -32.6 | -14.9 | -11.5 | -11.5 | -29.7 | -25.3 | -48.8 | -63.6 | -72.7 | -48.4 | -23.7 | -7.71 | 1.95 | -53.4 | viability at 10 µM [22]: -7.77%; viability at 10 µM [23]: -37.3%; viability at 10 µM [24]: -18.4%; viability at 10 µM [25]: 1.73%; viability at 10 µM [26]: -27.9%; viability at 10 µM [27]: -14.2%; viability at 10 µM [28]: -45.8%; GI50 [29]: 52.5 nM; TGI [29]: 220 nM; CC50 [29]: 700 nM; GI50 [30]: 94.9 nM; TGI [30]: 1040 nM; CC50 [30]: > 100000 nM; GI50 [31]: 200 nM; TGI [31]: 540 nM; GI50 [32]: 76.1 nM; TGI [32]: 510 nM
COc1cc2c(c3c1OCCO3)C(=O)NC1C2CC(O)C(O)C1O (racemic) | 105 | 103 | 100 | 95.7 | 102 | 97.3 | 93 | 102 | 95 | 104 | 105 | 100 | 101 | 110 | 101 | 99.3 | 108 | 95.2 | 111 | 100 | viability at 10 µM [15]: 106%; viability at 10 µM [22]: 93.4%; viability at 10 µM [23]: 106%; viability at 10 µM [24]: 99.8%; viability at 10 µM [25]: 97.3%; viability at 10 µM [26]: 103%; viability at 10 µM [27]: 99.8%; viability at 10 µM [28]: 99.5%
